{
  "source": "patent US7973064B2",
  "about": "“Method and composition for potentiating an opiate analgesic” (The Board of Trustees of the University of Illinois, priority 2001, dated 2011)",
  "key": {"Male Sprague-Dawley rats [1]": {"tested_on": "Male Sprague-Dawley rats", "assay": "Tail flick analgesia in rats", "assay_type": "in vivo, rat", "details": "for effect on tail flick latency (analgesia), drug alone: morphine 8 mg/kg s.c. or BQ123 10 μg i.c.v.", "procedure": "(§1) Male Sprague-Dawley rats weighing 225 to 250 g (Sasco King Animal Co., Madison, Wis.) were housed in a room with controlled temperature (23±1° C.), humidity (50±10%), and light (6:00 a.m. to 6:00 p.m.) for at least four days prior to testing. Food and water were available to the rats continuously.\n(§2) The rats were divided into four groups (FIG. 1): group 1 received vehicle (saline 5 μl, i.c.v. over 5 minutes) and vehicle (saline 100 μl/kg s.c.); group 2 received vehicle (saline 100 μl/kg, s.c.) and BQ123 (10 μg, i.c.v. in a volume of 5 μl over 5 minutes); group 3 received morphine (8 mg/kg, s.c. in a volume of 100 μl/kg) and vehicle (saline 100 μl/kg, s.c.); and group 4 received morphine (8 mg/kg, s.c. in a volume of 100 μl/kg) and BQ123 (10 μg, i.c.v. in a volume of 5 μl over 5 minutes). Vehicle or BQ123 treatment was performed 30 minutes prior to morphine administration.\n(§3) Measurement of analgesic effect: The analgesic response to morphine was determined by the tail flick method. The tail flick latencies to thermal stimulation were determined before and 30, 60, 90, 120, 180, 210, 240, 270, 300, and 360 minutes after the morphine injection. […] A cutoff time of 10 seconds was used to prevent damage to the tail. The basal latency was subtracted from that induced by morphine. […] The differences in analgesic response to different doses of morphine were compared by using student's t test. A value of P<0.05 was considered significant."}, "mice [2]": {"tested_on": "mice", "assay": "Tail flick analgesia in mice", "assay_type": "in vivo, mouse", "details": "morphine 2, 4, and 8 mg/kg s.c.", "procedure": "(§4) Tests also were performed on mice. The mice were housed and fed similar to the rats as described above taking into consideration the size differential between rats and mice. The mice were divided into groups identical to the rats, but administered different amounts of vehicle, opiate analgesic, and endothelin antagonist, as disclosed hereafter.\nas §3"}, "Male Sprague-Dawley rats [3]": {"tested_on": "Male Sprague-Dawley rats", "assay": "Colonic temperature in rats", "assay_type": "in vivo, rat", "details": "for effect on body temperature, drug alone: morphine 8 mg/kg s.c. or BQ123 10 μg i.c.v.", "procedure": "as §1, §2\nMeasurement of colonic temperature: The change in temperature in response to morphine was determined. The colonic temperature of each rat was recorded before and various times after morphine injection for a period of 360 minutes using a tele-thermometer. […] Rats used to measure tail flick latencies also were used to determine the colonic temperature. The differences in temperature response between various groups were compared by using student's t test. A value of P<0.05 was considered significant."}, "Male Sprague-Dawley rats [4]": {"tested_on": "Male Sprague-Dawley rats", "assay": "Catalepsy bar test in rats", "assay_type": "in vivo, rat", "details": "for catalepsy (bar test), drug alone: 45 minutes after morphine or vehicle, morphine 8 mg/kg s.c. or BQ123 10 μg i.c.v.", "procedure": "as §1, §2\nMeasurement of catalepsy: Rats were tested for catalepsy by the bar test. An aluminum bar 5 mm in diameter was placed 4 cm above the floor, and the animal's forepaw was gently placed on the bar. The time required for the animal to place at least one paw on the floor was measured with a maximum term of observation of 180 seconds. Behavioral evaluation of catalepsy was performed 45 minutes after the administration of morphine or its vehicle. Statistical tests were performed as described above."}, "Body weight in rats": {"assay": "Body weight in rats", "assay_type": "in vivo, rat", "details": "before any drug and seven hours after morphine, BQ123 10 μg i.c.v., morphine 8 mg/kg s.c.", "procedure": "as §2\nEffect on body weight: Body weight was measured in all groups of rats of FIG. 1. […] Body weight was measured before administering any drug and at the end of the experiment, i.e., seven hours after the administration of morphine."}, "[5]": {"tested_on": "streptozotocin-induced diabetic rat", "details": "cited from earlier work; for increase in tactile allodynia thresholds: systemic administration"}, "rat sciatic nerve": {"tested_on": "rat sciatic nerve", "details": "ET-1 200 to 800 μM applied to sciatic nerve, pretreatment; cited from earlier work"}, "[6]": {"tested_on": "Cr1:CD-1(ICR)BR mice and CXBK mice", "details": "ET-1 intraperitoneally, through μ1 sensitive pathway; cited from earlier work"}, "[7]": {"tested_on": "mice rendered tolerant and dependent on morphine", "assay": "Morphine tolerance in mice", "assay_type": "in vivo, mouse", "details": "FIGS. 6-8", "text": "(§5) FIGS. 6-8 illustrate the ability of an endothelin antagonist to […] opiate analgesic tolerance in mice and rats rendered tolerant and dependent on morphine. The test method used to generate the data set forth in FIGS. 6-8 is disclosed in H. N. Bhargava et al., J. Pharmacol. Exp. Ther., 252(3), pp. 901-907 (1990). The method disclosed therein was modified slightly for mice because the smaller mice could not survive the morphine dose administered to the rats."}, "mice [8]": {"tested_on": "mice", "details": "BQ123 and morphine 2, 4, or 8 mg/kg", "procedure": "as §4"}, "[9]": {"assay": "Body weight in mice given BQ123 and morphine", "assay_type": "in vivo, mouse", "details": "BQ123 and morphine 2, 4, or 8 mg/kg", "procedure": "Tests also were performed on mice."}, "[10]": {"tested_on": "morphine tolerant dependent rats", "assay": "Tolerance to analgesic effect in morphine tolerant dependent rats", "assay_type": "in vivo, rat", "details": "6 morphine pellets in 7-day period, BQ123 10 μg i.c.v. twice a day for 7 days", "procedure": "as §5\n(§6) The effect of BQ123 (3 μg, i.c.v.) on naloxone-precipitated morphine withdrawal also was determined in mice. […] Tests also were performed to determine tolerance to analgesic effect in morphine tolerant dependent rats (6 morphine pellets in 7-day period)."}, "morphine tolerant mice": {"tested_on": "morphine tolerant mice", "assay": "Naloxone-precipitated morphine withdrawal in mice", "assay_type": "in vivo, mouse", "details": "1 morphine 75 mg pellet for 3 days, naloxone 1 mg/kg i.p., BQ123 3 μg i.c.v.", "procedure": "as §6"}, "[11]": {"details": "BQ123 10 μg i.c.v. 30 minutes prior to morphine 8 mg/kg s.c."}},
  "note": "Entries after “also recorded” stand apart in the source; their conditions may differ. Square brackets hold non-standard residues; d marks the D form. Peptide text beside a SMILES is read from it.",
  "data": [
    {"smiles": "CN1CC[C@]23c4c5ccc(O)c4O[C@H]2[C@@H](O)C=C[C@H]3[C@H]1C5", "note": "[morphine]", "values": [
      {"measurement": "time after administration until which tail flick latencies were significantly increased, morphine alone", "setting": "Male Sprague-Dawley rats [1]; morphine 8 mg/kg s.c.", "value": "three"},
      {"measurement": "effect on tail flick latency (analgesia), drug alone", "setting": "Male Sprague-Dawley rats [1]", "value": "produced significant analgesia"},
      {"measurement": "tail flick latency", "setting": "Male Sprague-Dawley rats [1]; morphine 8 mg/kg s.c., control about 2 seconds", "value": "more than 10 seconds"},
      {"measurement": "duration of increase in tail flick latency, morphine alone", "setting": "mice [2]", "value": 1.5, "unit": "h"},
      {"measurement": "effect on mouse tail flick latency, morphine alone", "setting": "mice [2]", "value": "significant increase in mouse tail flick latency"},
      {"measurement": "duration of hyperthermia, morphine alone", "setting": "Male Sprague-Dawley rats [3]; morphine 8 mg/kg s.c.", "value": "about four"},
      {"measurement": "effect on body temperature, drug alone", "setting": "Male Sprague-Dawley rats [3]", "value": "produced significant hyperthermia"},
      {"measurement": "catalepsy (bar test), drug alone", "setting": "Male Sprague-Dawley rats [4]", "value": "significantly increased catalepsy"},
      {"measurement": "change in body weight", "setting": "Body weight in rats", "value": "neither morphine nor BQ123 produced any acute effect on body weight"},
      {"measurement": "increase in tactile allodynia thresholds", "setting": "[5]", "value": 90, "unit": "%"},
      {"measurement": "effect on ET-1 induced hindpaw flinching", "setting": "rat sciatic nerve", "value": "completely blocked"},
      {"measurement": "effect on ET-1 induced nociception", "setting": "[6]", "value": "could be blocked by morphine"}
    ]},
    {"smiles": "Cc1noc(NS(=O)(=O)c2cccc3c(N(C)C)cccc23)c1C", "note": "[BMS182874]", "values": [
      {"measurement": "morphine tolerance after treatment with endothelin antagonist", "setting": "[7]", "value": "reduced morphine tolerance"}
    ]},
    {"smiles": "CC(C)C[C@@H]1NC(=O)[C@@H](C(C)C)NC(=O)[C@@H]2CCCN2C(=O)[C@@H](CC(=O)O)NC(=O)[C@@H](Cc2c[nH]c3ccccc23)NC1=O", "note": "[BQ123, cyclo(-D-Trp-D-Asp-Pro-D-Val-Leu-)] (cyclo(L[dW][dD]P[dV]))", "values": [
      {"measurement": "duration of morphine analgesia in BQ123 pretreated rats", "setting": "Male Sprague-Dawley rats [1]; [11]", "value": "more than six"},
      {"measurement": "effect of BQ123 on analgesic effect of morphine", "setting": "Male Sprague-Dawley rats [1]; [11]", "value": "significantly potentiated"},
      {"measurement": "effect on tail flick latency (analgesia), drug alone", "setting": "Male Sprague-Dawley rats [1]", "value": "did not produce any significant effect on tail flick latency"},
      {"measurement": "duration of morphine analgesia with BQ123", "setting": "mice [2]; BQ123 3 μg i.c.v.", "value": "more than 4 hours"},
      {"measurement": "effect of BQ123 on morphine analgesia", "setting": "mice [2]; BQ123 3 μg i.c.v.", "value": "significantly potentiated morphine analgesia; also recorded: analgesia was potentiated"},
      {"measurement": "duration of morphine hyperthermia in BQ123 pretreated rats", "setting": "Male Sprague-Dawley rats [3]; [11]", "value": "more than six"},
      {"measurement": "effect of BQ123 on hyperthermic effect of morphine", "setting": "Male Sprague-Dawley rats [3]; [11]", "value": "significantly potentiated"},
      {"measurement": "effect on body temperature, drug alone", "setting": "Male Sprague-Dawley rats [3]", "value": "did not produce any significant effect on body temperature"},
      {"measurement": "catalepsy (bar test), drug alone", "setting": "Male Sprague-Dawley rats [4]", "value": "did not produce any cataleptic effect"},
      {"measurement": "effect of BQ123 pretreatment on morphine-induced catalepsy", "setting": "Male Sprague-Dawley rats [4]; [11]", "value": "did not produce any change in morphine-induced catalepsy"},
      {"measurement": "change in body weight", "setting": "Body weight in rats", "value": "no change in body weight"},
      {"measurement": "effect of BQ123 on morphine-induced hypothermia", "setting": "mice [8]", "value": "not affected"},
      {"measurement": "effect on body weight", "setting": "[9]", "value": "not affected"},
      {"measurement": "morphine tolerance after treatment with endothelin antagonist", "setting": "[7]", "value": "reduced morphine tolerance"},
      {"measurement": "development of tolerance to morphine analgesic effect", "setting": "[10]", "value": "did not become tolerant to morphine"},
      {"measurement": "effect on naloxone-precipitated morphine withdrawal symptoms", "setting": "morphine tolerant mice", "value": "did not affect hypothermia, loss of body weight, jumping behavior, falls, diarrhea, fecal boli, urination, ptosis, writhing, and rearing behavior during withdrawal; also recorded: no effect on temperature, body weight, urination, diarrhea, jumping behavior, number of falls, ptosis, and grooming"},
      {"measurement": "effect on ET-1 induced hindpaw flinching", "setting": "rat sciatic nerve", "value": "blocked"}
    ]},
    {"smiles": "CCCCN(CCCC)C(=O)CN1C[C@H](c2ccc3c(c2)OCO3)[C@@H](C(=O)O)[C@@H]1c1ccc(OC)cc1", "note": "[ABT-627]", "values": [
      {"measurement": "antinociceptive effect following chronic administration", "setting": "[5]; in drinking water for 7 days", "value": "maintained"},
      {"measurement": "increase in tactile allodynia thresholds", "setting": "[5]", "value": "40 to 50", "unit": "%"}
    ]}
  ]
}
